# Results as given in patent publication US20260242418A1, “CYCLIC PEPTIDES WITH ANTIBACTERIAL ACTIVITY AGAINST MULTIDRUG RESISTANT (MDR) PATHOGENS” (priority 2022, published 2026).
# Experiments:
# A. baumannii ATCC 19606 = experiment: Time-kill curves; format: cell-based, Acinetobacter baumannii
# Procedure: (§1) Time-kill curves (TKC) determine the in vitro antimicrobial activity of a compound, monitoring the bacterial growth over a certain period of time.
# (§2) This assay was performed for two Acinetobacter baumannii strains (a clinical strain and ATCC 19606 strain) and one Pseudomonas aeruginosa ATCC 27853 strain, monitoring its growth during 24 hours at different PLP-3 (SEQ ID NO: 4) concentrations: MIC, 2×MIC, 4×MIC, 8×MIC. Moreover, in each TKC assay a negative and a positive growth control was stablished.
# (§3) In different 13MI tubes, a certain concentration of PLP-3 peptide, Mueller-Hinton Broth (MHB, 1214, Condalab) and a fixed inoculum concentration were added. The final inoculum concentration in each tube was […]. Tubes were incubated at 37° C. at 180 rpm during 24 hours. Aliquots of the liquid culture were taken at different times: 0 h, 10 minutes, 30 minutes, 1 h, 2 h, 4 h, 8 h and 24 h. For each taken aliquot, serial dilutions with Phosphate Saline Buffer 1× (PBS 1×) were made and streaked in Luria-Bertani Agar (LB, 1083, Condalab). LB Agar plates were incubated at 37° C. during 18-22 hours. Grown colonies in LB Agar were counted in order to quantify the inoculum in each time period.
# (§4) Three biological replicates were performed for each strain, and the mean and standard deviation was determined each time.
# [1] = test system: A. baumannii 8 clinical strain; experiment: Time-kill curves; format: cell-based, Acinetobacter baumannii
# Procedure: as §1, §2, §3, §4
# Pseudomonas aeruginosa = format: cell-based
# Description: Minimum Inhibitory Concentration (MIC) of a peptide of SEQ D NO: 4 (abbreviated PLP-3) and colistin against a collection of clinically relevant and commercially available bacterial strains was obtained via broth microdilution. The protocol for antimicrobial activity determination, detailed below, consisted in a modification of Clinical & Laboratory Standards Institute (CLSI) Guidelines.
# MIC is the value defined as the lowest concentration of an antimicrobial, in these tests either PLP-3 or colistin, which inhibits the macroscopic growth of a bacterial strain after 18-22 h incubation at 37° C. The results from these assays are obtained via visual identification of the bacterial bottom at the end of the wells of the testing plate. Since the wells contain decreasing concentrations of the compounds, the final result is indicated as a concentration, MIC, expressed in μg/mL of the agent (in this case PLP-3 or colistin).
# Bacterial strains were streaked in Columbia Agar plates (Columbia Agar with 5% Sheep Blood 90 mm Stacker plates, BD) and incubated overnight at 37° C. Polypropylene round bottomed 96-well plates were filled with 50 μL/well of Mueller-Hinton Broth (MHB, CM0405, 500 g, ThermoFisher Scientific™ Oxoid™) and 50 μL of either colistin or PLP-3 (at 4× the chosen initial concentration of the test) were added to the first well of each row of the plate followed by serial dilutions up until the 10th column of the plate.
# Finally, strain inoculums were prepared by diluting 1:100 0.5 McFarland solutions in MHB. Plates were then inoculated with 50 μL of the inoculums and covered with film before 18 to 22 h incubation at 37 C.
# Three biological and three technical replicates were performed per strain.
# Broth microdilution testing of 15 strains of each species provided MIC50 and […] values (Table 4). Strains were either from clinical origin, relevant to current clinical situation, or commercially available strains belonging to the American Type Culture Collection (ATCC), namely: A. baumannii 17978 and 19606, K. pneumoniae 13883 and P. aeruginosa 27853.
# This panel represents an example of relevant MDR, colistin resistant and colistin susceptible strains from which to compare results. The minimum inhibitory concentration (MIC) is the lowest concentration of a chemical, usually a drug, which prevents visible growth of a bacterium or bacteria. MIC50 represents the antimicrobial concentration value that inhibits the growth of 50% of the bacterial strains and […] of each species from the tested panel of strains. Being colistin both a peptide and a last-resource antibiotic, it was included in these assays for comparison against a commercially available antibiotic.
# P. aeruginosa ATCC 27853 strain (commercially available from the American Type Collection Culture) was used as control by performing MICs to colistin and PLP-3 in all broth microdilution assays
# [2] = time-kill curves over 24 hours, MIC to 8xMIC
# [3] = panel of 15 P. aeruginosa strains
compound,measurement,setting,value
"CC(C)C[C@@H]1NC(=O)[C@H](CCCNC(=N)N)NC(=O)[C@H](CCCNC(=N)N)NC(=O)[C@H](CCCNC(=N)N)NC(=O)[C@H]2CCCN2C(=O)[C@H](CCCNC(=N)N)NC(=O)[C@H](CCCNC(=N)N)NC(=O)[C@H](C(C)C)NC(=O)[C@@H]2CSSC[C@H](NC1=O)C(=O)N[C@@H](Cc1ccccc1)C(=O)N[C@@H](C(C)C)C(=O)N[C@@H](CCCNC(=N)N)C(=O)N1CCC[C@@H]1C(=O)N[C@@H](CCCCN)C(=O)N[C@@H](Cc1ccccc1)C(=O)N[C@@H](C(C)C)C(=O)N[C@@H](C(C)C)C(=O)N2 [PLP-3, cyclo[RRRLCFVRPKFVVCVRRP]]",log(CFU/mL) Mean,"A. baumannii ATCC 19606; 2xMIC (4 μg/mL), 0.00 h",5.87 log(CFU/mL)
same,log(CFU/mL) Mean,"A. baumannii ATCC 19606; 2xMIC (4 μg/mL), 0.17 h",5.54 log(CFU/mL)
same,log(CFU/mL) Mean,"A. baumannii ATCC 19606; 2xMIC (4 μg/mL), 0.50 h",4.91 log(CFU/mL)
same,log(CFU/mL) Mean,"A. baumannii ATCC 19606; 2xMIC (4 μg/mL), 1.00 h",3.14 log(CFU/mL)
same,log(CFU/mL) Mean,"A. baumannii ATCC 19606; 2xMIC (4 μg/mL), 2.00 h",2.18 log(CFU/mL)
same,log(CFU/mL) Mean,"A. baumannii ATCC 19606; 2xMIC (4 μg/mL), 4.00 h",2.58 log(CFU/mL)
same,log(CFU/mL) Mean,"A. baumannii ATCC 19606; 2xMIC (4 μg/mL), 8.00 h",2.56 log(CFU/mL)
same,log(CFU/mL) Mean,"A. baumannii ATCC 19606; 2xMIC (4 μg/mL), 24.00 h",3.30 log(CFU/mL)
same,log(CFU/mL) Mean,"A. baumannii ATCC 19606; 4xMIC (8 μg/mL), 0.00 h",5.87 log(CFU/mL)
same,log(CFU/mL) Mean,"A. baumannii ATCC 19606; 4xMIC (8 μg/mL), 0.17 h",5.12 log(CFU/mL)
same,log(CFU/mL) Mean,"A. baumannii ATCC 19606; 4xMIC (8 μg/mL), 0.50 h",3.79 log(CFU/mL)
same,log(CFU/mL) Mean,"A. baumannii ATCC 19606; 4xMIC (8 μg/mL), 1.00 h",0.94 log(CFU/mL)
same,log(CFU/mL) Mean,"A. baumannii ATCC 19606; 4xMIC (8 μg/mL), 2.00 h",0.00 log(CFU/mL)
same,log(CFU/mL) Mean,"A. baumannii ATCC 19606; 4xMIC (8 μg/mL), 4.00 h",0.00 log(CFU/mL)
same,log(CFU/mL) Mean,"A. baumannii ATCC 19606; 4xMIC (8 μg/mL), 8.00 h",0.00 log(CFU/mL)
same,log(CFU/mL) Mean,"A. baumannii ATCC 19606; 4xMIC (8 μg/mL), 24.00 h",0.00 log(CFU/mL)
same,log(CFU/mL) Mean,"A. baumannii ATCC 19606; 8xMIC (16 μg/mL), 0.00 h",5.87 log(CFU/mL)
same,log(CFU/mL) Mean,"A. baumannii ATCC 19606; 8xMIC (16 μg/mL), 0.17 h",3.41 log(CFU/mL)
same,log(CFU/mL) Mean,"A. baumannii ATCC 19606; 8xMIC (16 μg/mL), 0.50 h",0.87 log(CFU/mL)
same,log(CFU/mL) Mean,"A. baumannii ATCC 19606; 8xMIC (16 μg/mL), 1.00 h",0.00 log(CFU/mL)
same,log(CFU/mL) Mean,"A. baumannii ATCC 19606; 8xMIC (16 μg/mL), 2.00 h",0.00 log(CFU/mL)
same,log(CFU/mL) Mean,"A. baumannii ATCC 19606; 8xMIC (16 μg/mL), 4.00 h",0.00 log(CFU/mL)
same,log(CFU/mL) Mean,"A. baumannii ATCC 19606; 8xMIC (16 μg/mL), 8.00 h",0.00 log(CFU/mL)
same,log(CFU/mL) Mean,"A. baumannii ATCC 19606; 8xMIC (16 μg/mL), 24.00 h",0.00 log(CFU/mL)
same,log(CFU/mL) Mean,"A. baumannii ATCC 19606; MIC (2 μg/mL), 0.00 h",5.87 log(CFU/mL)
same,log(CFU/mL) Mean,"A. baumannii ATCC 19606; MIC (2 μg/mL), 0.17 h",5.85 log(CFU/mL)
same,log(CFU/mL) Mean,"A. baumannii ATCC 19606; MIC (2 μg/mL), 0.50 h",5.43 log(CFU/mL)
same,log(CFU/mL) Mean,"A. baumannii ATCC 19606; MIC (2 μg/mL), 1.00 h",4.01 log(CFU/mL)
same,log(CFU/mL) Mean,"A. baumannii ATCC 19606; MIC (2 μg/mL), 2.00 h",2.39 log(CFU/mL)
same,log(CFU/mL) Mean,"A. baumannii ATCC 19606; MIC (2 μg/mL), 4.00 h",3.05 log(CFU/mL)
same,log(CFU/mL) Mean,"A. baumannii ATCC 19606; MIC (2 μg/mL), 8.00 h",3.85 log(CFU/mL)
same,log(CFU/mL) Mean,"A. baumannii ATCC 19606; MIC (2 μg/mL), 24.00 h",5.17 log(CFU/mL)
same,bactericidal or bacteriostatic activity,A. baumannii ATCC 19606; [2],bactericidal effect
same,log(CFU/mL) Mean,"[1]; 2xMIC (4 μg/mL), 0.00 h",5.60 log(CFU/mL)
same,log(CFU/mL) Mean,"[1]; 2xMIC (4 μg/mL), 0.17 h",5.56 log(CFU/mL)
same,log(CFU/mL) Mean,"[1]; 2xMIC (4 μg/mL), 0.50 h",4.92 log(CFU/mL)
same,log(CFU/mL) Mean,"[1]; 2xMIC (4 μg/mL), 1.00 h",4.20 log(CFU/mL)
same,log(CFU/mL) Mean,"[1]; 2xMIC (4 μg/mL), 2.00 h",2.74 log(CFU/mL)
same,log(CFU/mL) Mean,"[1]; 2xMIC (4 μg/mL), 4.00 h",1.89 log(CFU/mL)
same,log(CFU/mL) Mean,"[1]; 2xMIC (4 μg/mL), 8.00 h",1.05 log(CFU/mL)
same,log(CFU/mL) Mean,"[1]; 2xMIC (4 μg/mL), 24.00 h",1.49 log(CFU/mL)
same,log(CFU/mL) Mean,"[1]; 4xMIC (8 μg/mL), 0.00 h",5.60 log(CFU/mL)
same,log(CFU/mL) Mean,"[1]; 4xMIC (8 μg/mL), 0.17 h",5.30 log(CFU/mL)
same,log(CFU/mL) Mean,"[1]; 4xMIC (8 μg/mL), 0.50 h",4.11 log(CFU/mL)
same,log(CFU/mL) Mean,"[1]; 4xMIC (8 μg/mL), 1.00 h",2.74 log(CFU/mL)
same,log(CFU/mL) Mean,"[1]; 4xMIC (8 μg/mL), 2.00 h",0.00 log(CFU/mL)
same,log(CFU/mL) Mean,"[1]; 4xMIC (8 μg/mL), 4.00 h",0.00 log(CFU/mL)
same,log(CFU/mL) Mean,"[1]; 4xMIC (8 μg/mL), 8.00 h",0.00 log(CFU/mL)
same,log(CFU/mL) Mean,"[1]; 4xMIC (8 μg/mL), 24.00 h",0.00 log(CFU/mL)
same,log(CFU/mL) Mean,"[1]; 8xMIC (16 μg/mL), 0.00 h",5.60 log(CFU/mL)
same,log(CFU/mL) Mean,"[1]; 8xMIC (16 μg/mL), 0.17 h",4.45 log(CFU/mL)
same,log(CFU/mL) Mean,"[1]; 8xMIC (16 μg/mL), 0.50 h",0.00 log(CFU/mL)
same,log(CFU/mL) Mean,"[1]; 8xMIC (16 μg/mL), 1.00 h",0.00 log(CFU/mL)
same,log(CFU/mL) Mean,"[1]; 8xMIC (16 μg/mL), 2.00 h",0.00 log(CFU/mL)
same,log(CFU/mL) Mean,"[1]; 8xMIC (16 μg/mL), 4.00 h",0.00 log(CFU/mL)
same,log(CFU/mL) Mean,"[1]; 8xMIC (16 μg/mL), 8.00 h",0.00 log(CFU/mL)
same,log(CFU/mL) Mean,"[1]; 8xMIC (16 μg/mL), 24.00 h",0.00 log(CFU/mL)
same,log(CFU/mL) Mean,"[1]; MIC (2 μg/mL), 0.00 h",5.60 log(CFU/mL)
same,log(CFU/mL) Mean,"[1]; MIC (2 μg/mL), 0.17 h",5.63 log(CFU/mL)
same,log(CFU/mL) Mean,"[1]; MIC (2 μg/mL), 0.50 h",5.18 log(CFU/mL)
same,log(CFU/mL) Mean,"[1]; MIC (2 μg/mL), 1.00 h",4.55 log(CFU/mL)
same,log(CFU/mL) Mean,"[1]; MIC (2 μg/mL), 2.00 h",3.56 log(CFU/mL)
same,log(CFU/mL) Mean,"[1]; MIC (2 μg/mL), 4.00 h",2.54 log(CFU/mL)
same,log(CFU/mL) Mean,"[1]; MIC (2 μg/mL), 8.00 h",2.90 log(CFU/mL)
same,log(CFU/mL) Mean,"[1]; MIC (2 μg/mL), 24.00 h",4.67 log(CFU/mL)
same,bactericidal or bacteriostatic activity,[1]; [2],bactericidal effect
same,MIC range,Pseudomonas aeruginosa,1 to 8 µg/mL
same,MIC50,Pseudomonas aeruginosa; [3],4 µg/mL
same,MIC90,Pseudomonas aeruginosa; [3],8 µg/mL
